Data: patent US10676442B2, “Salt derivative of tetrahydroisoquinoline and crystalline thereof and preparation method therefore and application thereof” (CHINA STATE INSTITUTE OF PHARMACEUTICAL INDUSTRY, priority 2016, dated 2020)
Values after ≈ are worked out from the molar mass of the structure shown. Values joined by “and” are separate entries in the source; they are usually repeats but may differ in a detail not shown here. Equal entries are not always repeated. “Also recorded” adds a separate entry of the source. Structures can show the parent of a compound that is named as a salt. Where two headings read alike, the source gives them in different places.

Legend:
[1] = Preliminary pharmacokinetic studies (background); format: in vivo, SD rats; details: for bioavailability: rat, plasma, oral administration, SD rats
Excerpt: This can be explained by the excessively low solubility of the salt.

[2] = Measurement of solubility in water by liquid chromatography; format: physicochemical; details: for Solubility in water: saturated solution shaken 12 hrs at 30° C., HPLC; for Solubility in water compared to SIPI-409 and SIPI-409 hydrochloride: in words
Method: Solubility of SIPI-409 and of the salt derivatives thereof in water was measured by liquid chromatography.
Main steps: preparing SIPI-409 standards at the concentrations of 5 ? g/mL, 10 ? g/mL, 50 ? g/mL, 100 ? g/mL, 200 ? g/mL and establishing the standard curve of these preparations.
Chromatography Conditions:
Chromatography column: Phenomenex Luna 5u C18(2) 100 A 4.6×200 mm
Detection wave-length: 210 nm
Mobile phase: acetonitrile/phosphate buffer (0.68 g/L monopotassium phosphate, pH was adjusted to 3.0 using triethylamine)=68/32
Column temperature: 30° C.
Load volume: 10 ? L
Residence time: around 6.3 min
Sample treatment: the test samples were prepared into saturated solutions in water (suspensions) and shaken for 12 hrs at 30° C., which were further ultrasonicated for 30 s, followed by filtration and preparation of serial dilutions as appropriate, which were then analyzed by HPLC.

[3] = Pharmacokinetic study, single oral dose in SD rats (LC-MS/MS of plasma); format: in vivo
Method: SIPI-409 hydrochloride and SIPI-409 phosphate were administrated peros (PO), and were studied on in vivo pharmacokinetic parameters and bioavailability in SD rats. Concentrations of SIPI-409 hydrochloride and SIPI-409 phosphate in plasma were measured at intervals using Liquid Chromatography-Mass Spectrometry-Mass Spectrometry assay.
The obtained plasma concentration data were processed using the pharmacokinetic processing software WinNonlin 5.2 to calculate the relevant pharmacokinetic parameters according to non-compartmental model.

[4] = Pharmacokinetics after intravenous administration in SD rats; format: in vivo; details: α-crystalline form, compared with SIPI-409 hydrochloride
[5] = Temperature stability investigation (60° C. oven, XRPD); format: physicochemical; details: oven at 60° C., XRPD on day 0, 5, 10, 20 and 30
Method: Phosphate, nicotinate, glycolate, oxalate, orotate, benzenesulfonate and sulfate of SIPI-409 were placed in an oven at 60° C. XRPD measurements were carried out on samples taken out on day 0, 5, 10, 20 and 30.

[6] = Humidity stability investigation (92.5% RH, XRPD); format: physicochemical; details: 92.5% RH (saturated KNO3), XRPD on day 0, 5, 10, 20 and 30
Method: The phosphate, nicotinate, glycolate, oxalate, orotate, benzenesulfonate and sulfate of SIPI-409 were kept in a 92.5% RH (saturated KNO3) atomosphere. XRPD measurements were carried out on samples taken out on day 0, 5, 10, 20 and 30.

[7] = Light stability investigation (light incubator, XRPD); format: physicochemical
Method: The phosphate, nicotinate, glycolate, oxalate, orotate, benzenesulfonate and sulfate of SIPI-409 were placed in a light incubator. XRPD measurements were carried out on samples taken out on day 0, 5, 10, 20 and 30.

[8] = Hygroscopicity investigation (dynamic vapor sorption); format: physicochemical; details: dynamic vapor sorption analyzer
Excerpt: Hygroscopicity was further investigated by placing the phosphate, nicotinate, glycolate, oxalate, orotate, benzenesulfonate and sulfate of SIPI-409 in a dynamic vapor sorption (DVS) analyzer.

[9] = PO 10 mg/kg (based on SIPI-409), single dose, 10 mg/kg
[10] = XRPD on day 0, 5, 10, 20 and 30

Row | Compound | bioavailability [1] [%] | Solubility in water [2] [µg/mL] | Solubility in water compared to SIPI-409 and SIPI-409 hydrochloride [2] | AUC(0-t) [3, 9] [ng·h/mL] | AUC(0-∞) [3, 9] [ng·h/mL] | F (bioavailability) [3, 9] | Stability 60° C. [5] | Stability 92.5% RH [6] | Stability Light [7, 10] | DVS Max Hygroscopicity [8] [%] | also measured
1 | CC(C)NCC(O)c1ccc(NS(C)(=O)=O)cc1 (centres unmarked) [Sotalol] | 70 | – | – | – | – | – | – | – | – | – | –
2 | COc1cc2c(cc1OCc1ccccc1)C(Cc1cccc(NS(C)(=O)=O)c1)NCC2 (centres unmarked) [SIPI-409 Phosphate, 1-(3-methanesulfonamidobenzyl)-6-methoxy,7-benzyloxy-1,2,3,4-tetrahydroisoquinoline] | – | 9690 | significantly increased solubility in water | 1366.89 | 1437.93 | 79% and 79.33% | – | – | – | – | half-life ([3]; SD, rat, plasma, po, 10 mg/kg, PO 10 mg/kg (based on SIPI-409), single dose): 2.66 h; Cmax ([3]; SD, rat, plasma, po, 10 mg/kg, PO 10 mg/kg (based on SIPI-409), single dose, read-out: Cmax): 376 ng/mL; MRT inf ([3]; SD, rat, plasma, po, 10 mg/kg, PO 10 mg/kg (based on SIPI-409), single dose, read-out: MRT(0-∞)): 4.23 h; Increase of bioavailability compared to SIPI-409 hydrochloride ([3]; oral administration): 329%; Tmax ([3]; rat, plasma, PO 10 mg/kg (based on SIPI-409), single dose, read-out: Tmax): 0.33 h; Pharmacokinetic parameters after intravenous administration [4]: substantially comparable to SIPI-409 hydrochloride; Stability 60° C. ([5]; listed as SIPI-409 phosphate): satisfactory stabilities; Stability 60° C. ([5]; listed as phosphate): Stable; Stability 92.5% RH ([6]; listed as SIPI-409 phosphate): satisfactory stabilities; Stability 92.5% RH ([6]; listed as phosphate): Stable; Stability Light ([7]; XRPD on day 0, 5, 10, 20 and 30, listed as SIPI-409 phosphate): satisfactory stabilities; Stability Light ([7]; XRPD on day 0, 5, 10, 20 and 30, listed as phosphate): Stable; DVS Max Hygroscopicity ([8]; listed as SIPI-409 phosphate): 0.7%; DVS Max Hygroscopicity ([8]; listed as phosphate): 0.7%
3 | COc1cc2c(cc1OCc1ccccc1)C(Cc1cccc(NS(C)(=O)=O)c1)NCC2 (centres unmarked) [SIPI-409 Hydrochloride, 1-(3-methanesulfonamidobenzyl)-6-methoxy,7-benzyloxy-1,2,3,4-tetrahydroisoquinoline, reference compound] | 24 | 510 | – | 482.88 | 503.82 | 24.63% | – | – | – | – | Tmax ([3]; PO 10 mg/kg (based on SIPI-409), single dose): 0.33 h; Cmax [3, 9]: 191.96 ng/mL; t1/2 [3, 9]: 1.8 h; t1/2 of injection ([1]; injection, compared with Sotalol): close to that of Sotalol
4 | COc1cc2c(cc1OCc1ccccc1)C(Cc1cccc(NS(C)(=O)=O)c1)NCC2 (centres unmarked) [SIPI-409 Orotate, 1-(3-methanesulfonamidobenzyl)-6-methoxy,7-benzyloxy-1,2,3,4-tetrahydroisoquinoline] | – | 1930 (≈ 4.26 mM) | significantly increased solubility in water | – | – | – | Stable | Stable | Stable | 1.1 | –
5 | COc1cc2c(cc1OCc1ccccc1)C(Cc1cccc(NS(C)(=O)=O)c1)NCC2 (centres unmarked) [SIPI-409 Nicotinate, 1-(3-methanesulfonamidobenzyl)-6-methoxy,7-benzyloxy-1,2,3,4-tetrahydroisoquinoline] | – | 4260 (≈ 9.41 mM) | significantly increased solubility in water | – | – | – | less stable against heat and degraded since day 5; also recorded: Instable | Hygroscopic | Stable | 4.5 | –
6 | COc1cc2c(cc1OCc1ccccc1)C(Cc1cccc(NS(C)(=O)=O)c1)NCC2 (centres unmarked) [SIPI-409 Oxalate, 1-(3-methanesulfonamidobenzyl)-6-methoxy,7-benzyloxy-1,2,3,4-tetrahydroisoquinoline] | – | 3520 | significantly increased solubility in water | – | – | – | Stable | Hygroscopic | Stable | 9.5 | –
